ChEMBL document CHEMBL1136422, “Synthesis, in vitro, and in vivo evaluation of phosphate ester derivatives of combretastatin A-4” (Bioorg Med Chem Lett, 2003)
pIC50: −log10 of the molar value.

Tests used:
[1] = In vitro cytotoxicity evaluated in mouse heart endotheliaoma cell (MHEC5-T) after incubation of the cells for 1 hr; assay type: functional, cell-based
[2] = In vitro cytotoxicity evaluated in mouse heart endotheliaoma cell (MHEC5-T) after incubation of the cells for 5 days; assay type: functional, cell-based; conditions: 120 h
Mus musculus = assay: Vascular shutdown expressed as vessel density decrease in percent of the control at the dose of 100 mg/kg; assay type: functional
HT-29 = assay: Cytotoxicity evaluated against colon cancer cell line (HT-29); assay type: functional, cell-based; conditions: Homo sapiens

| SMILES | pIC50 [1] | pIC50 [2] | Vessel density decrease vs control (Mus musculus) [%] | pIC50 (HT-29) |
| --- | --- | --- | --- | --- |
| COc1ccc(/C=C\c2cc(OC)c(OC)c(OC)c2)cc1OCCCS(=O)(=O)[O-].[Na+] | < 4.60 | < 4.60 | 10 | – |
| COc1ccc(/C=C\c2cc(OC)c(OC)c(OC)c2)cc1OP(=O)(O)OC1CCCCC1.N | < 4.60 | 5.52 | 0 | – |
| COc1ccc(/C=C\c2cc(OC)c(OC)c(OC)c2)cc1O [COMBRETASTATIN A4] | 5.98 | 8.40 | 71 | – |
| COc1ccc(/C=C\c2cc(OC)c(OC)c(OC)c2)cc1OP(=O)([O-])[O-].[Na+].[Na+] [FOSBRETABULIN DISODIUM] | 6.10 | 8.70 | 88 | 6.70 |
| CCCCCCCCOP(=O)(O)Oc1cc(/C=C\c2cc(OC)c(OC)c(OC)c2)ccc1OC.N | 4.60 | 7.15 | 89 | – |
| COc1ccc(/C=C\c2cc(OC)c(OC)c(OC)c2)cc1OP(=O)(OC)OC | 4.46 | 6.89 | 20 | – |
| COc1ccc(/C=C\c2cc(OC)c(OC)c(OC)c2)cc1OP(=O)(O)OC.N | 4.42 | 7.15 | 0 | – |
| COc1ccc(/C=C\c2cc(OC)c(OC)c(OC)c2)cc1OP(=O)(O)OCC(F)(F)F.N | 5.00 | 7.22 | 0 | – |
| COc1ccc(/C=C\c2cc(OC)c(OC)c(OC)c2)cc1OP(=O)([O-])Oc1cc(/C=C\c2cc(OC)c(OC)c(OC)c2)ccc1OC.[Na+] | < 4.60 | 6.29 | 0 | – |
| COc1ccc(/C=C\c2cc(OC)c(OC)c(OC)c2)cc1OP(=O)(O)Oc1cccc(Cl)c1.N | < 4.60 | 5.52 | 90 | – |
| CCCCOP(=O)(OCCCC)Oc1cc(/C=C\c2cc(OC)c(OC)c(OC)c2)ccc1OC | 5.10 | 6.59 | 0 | – |
